# From patent US20190195880A1, “METHODS AND KITS FOR PREDICTING THE SENSITIVITY OF A SUBJECT SUFFERING OF RENAL CANCER TO CANCER TREATMENT” (CENTRE NATIONAL DE LA RECHERCHE SCIENTIFIQUE (CNRS), priority 2016, published 2019)
# Read-outs that look alike come from different tables or passages of the source.
# What was measured:
# metastatic ccRCC [1] = tested on: metastatic ccRCC
# Method: Eligible patients were at least 18 years of age and had metastatic ccRCC histologically confirmed, with the presence of measurable disease according to Response Evaluation Criteria in Solid Tumors (RECIST) v1.1.
# The primary end point of the study was to evaluate the correlation between plasmatic levels of CXCL5 and CXCL7 and the overall response rate (ORR). The response was evaluated by investigators' assessment.
# The secondary end points were to evaluate the correlation between plasmatic levels of CXCL5 and/or CXCL7 and overall survival (OS) and progression-free survival (PFS), censored at last follow-up for those still alive or who have not progressed.
# Blood samples were centrifuged and the plasmas were collected and conserved at −80° C. Plasmatic levels of CXCL5 and CXCL7 were determined by ELISA using R&D (reference DY254) and Peprotech kits (reference 900-K40) respectively. Pure plasma or a 1/5 dilution was used for CXCL5 detection and a 1/100 dilution was used to detect CXCL7.
# Spearman's correlation was performed between best response rate and quantitative level of chemokine. The CXCL5 and CXCL7 cut-off points (respectively 0.1 and 250 ng/ml) for PFS and OS were determined using smoothing spline curves analysis (R software, version 3.2.2). Kaplan Meier method was used to produce survival curves and analyses of censored data were performed using Cox models. The predictive cut-off points determined in the SUVEGIL cohort were used for the TORAVA cohort.
# metastatic ccRCC [2] = experiment: Combination of SUVEGIL and TORAVA trials (sunitinib): survival versus plasmatic CXCL7; type: in vivo, human; conditions: both cohorts combined
# Method: (§1) All patients gave written informed consent. The SUVEGIL trial (NCT00943839) was a multicenter prospective single-arm study. […] Patient characteristics and results have been previously described (Negrier et al., 2011).
# (§2) The CXCL5 and CXCL7 cut-off points (respectively 0.1 and 250 ng/ml) for PFS and OS were determined using smoothing spline curves analysis (R software, version 3.2.2). […] The predictive cut-off points determined in the SUVEGIL cohort were used for the TORAVA cohort.
# metastatic ccRCC [3] = experiment: TORAVA trial (retrospective validation cohort): survival versus plasmatic CXCL5/CXCL7; type: in vivo, human; conditions: patients with CXCL7 plasma levels below 250 ng/ml
# Method: as §1, §2
# [4] = CXCL7 plasma levels below 250 ng/ml
structure (smiles),measurement,setting,value
CCN(CC)CCNC(=O)c1c(C)[nH]c(/C=C2\C(=O)Nc3ccc(F)cc32)c1C [sunitinib],median PFS,"metastatic ccRCC [1]; SUVEGIL prospective cohort, all patients",20.1 months
same,median PFS,metastatic ccRCC [1]; patients with CXCL5 plasma levels below 0.1 ng/ml,14.9 months
same,median OS,metastatic ccRCC [1]; patients with CXCL7 plasma levels below 250 ng/ml,20.5 months
same,PFS,metastatic ccRCC [1]; patients with CXCL7 plasma levels below 250 ng/ml at diagnosis,15.1 months
same,median OS,"metastatic ccRCC [1]; patients with CXCL7 plasmatic levels above 250 ng/ml, p=0.001",34.4 months
same,OS,"metastatic ccRCC [2]; CXCL7 plasma levels above 250 ng/ml, p=0.00025",34.4 months
same,OS,metastatic ccRCC [2]; [4],20.7 months
same,median PFS,metastatic ccRCC [2]; [4],8.3 months
same,PFS,metastatic ccRCC [3],8.6 months
